Data reported in article PMC7589326, “Synthesis and Pharmacological Evaluation of Fluorinated Quinoxaline‐Based κ‐Opioid Receptor (KOR) Agonists Designed for PET Studies” (Chemmedchem, 2020).
Entries after “also recorded” stand apart in the source; their conditions may differ.

Tests used:
[1] = In vitro biotransformation with mouse liver microsomes and NADPH (LC-MS/MS); settings: mouse liver microsomes, NADPH, 90 min
[2] = Distribution coefficient logD7.4, shake flask method with radioligand; type: physicochemical; settings: n-octanol / phosphate buffered saline pH 7.4
Method: The distribution coefficient at pH 7.4 (logD7.4) was determined by a shake flask method using the radioligand [^18F]‐2. After distribution of [^18F]‐2 between n‐octanol and phosphate buffered saline (pH 7.4) layers, the radioactivity in both layers was determined and set in ratio. According to this procedure, a logD7.4 value of 1.37±0.06 was determined indicating a moderate lipophilic compound, which should be able to penetrate into the central nervous system.
The lipophilicity of radioligands [^18F]‐2 and [^18F]‐14c was assessed by determination of the water n‐octan‐1‐ol distribution coefficient (logD) following a published procedure.57 In brief, approximately 3.2 MBq of radioligand [^18F]‐2 and approximately 0.3 MBq of radiotracer [^18F]‐14c, respectively, were mixed with equal amounts (0.6 mL) of phosphate buffered saline (PBS, pH 7.4) and n‐octan‐1‐ol. The resulting biphasic system was mixed vigorously for 3 min at room temperature and subsequently, the tubes were centrifuged (≥5 min). Then 400 μL of the n‐octan‐1‐ol layer was separated and 400 μL of PBS were added. The mixture was mixed vigorously for 10 min at room temperature followed by centrifugation of the tubes for≥5 min. Two samples of 100 μL of each layer were counted in a γ‐counter (2480 Automatic Gamma Counter Wizard^2, Perkin‐Elmer). The distribution coefficient was determined by calculating the ratio cpm(n‐octan‐1‐ol)/cpm(PBS) and expressed as logD 7.4 (log(cpmn‐octanol/cpmPBS)). Three independent experiments were performed in duplicate and data were provided as mean values ±standard deviation.

[3] = Stability in mouse serum (radio-HPLC); type: in vitro ADME; settings: 90 min, 37 °C
Method: (§1) Enzymes present in blood serum could be able to transform the radioactive PET tracer [^18F]‐2. Therefore, the blood serum stability of [^18F]‐2 was investigated before testing the tracer in vivo. [^18F]‐2 was incubated with mouse and human serum for 90 min at 37 °C.
(§2) The serum stability of radioligands [^18F]‐2 and [^18F]‐14c was evaluated by incubation in mouse or human serum at 37 °C for up to 90 min. An aliquot of formulated [^18F]‐2 or [^18F]‐14c (20 μL, ca. 6.6 MBq and ca.10 MBq, respectively) was added to a sample of mouse serum (200 μL) or human serum (200 μL), and the mixtures were incubated at 37 °C. Samples of 20 μL each were taken after periods of 10, 30, 60 and 90 min and ice‐cold DNA‐grade CH3CN (100 μL) were added. After centrifugation for ≥5 min, the supernatant was analyzed by analytical radio‐HPLC B, method B.

[4] = Stability in human serum (radio-HPLC); type: in vitro ADME; settings: 90 min, 37 °C
Method: as §1, §2

[5] = In vivo biodistribution, small animal PET in C57BL/6 mice; parameters: species or system mouse; settings: C57BL/6 mice, intravenous injection
Method: Next, the distribution of the PET tracer [^18F]‐2 in mice was investigated. For this purpose, [^18F]‐2 was injected into 15‐week‐old C57BL/6 mice. […] Already after 2 min the radioactivity was almost completely found in liver, kidneys and bladder. In the liver, the radioactivity remained almost constant over the period of 90 min (Figure 6). Besides a transient local increase in radioactivity in the submandibular and harderian glands, no significant accumulation of [^18F]‐2 in non‐excreting organs such as heart, lung and muscles as indicator for unspecific binding could be detected.
Adult C57BL/6 mice (n=2 male, 15 weeks, 28 g for [^18F]‐2; n=2, male, 10 weeks, 25 g for [^18F]‐14c) were anesthetized by isoflurane/O2 and one lateral tail vein was cannulated BY using a 27 G needle connected to 15 cm polyethylene catheter tubing. Radiotracers (∼500 kBq/g bodyweight, 15 MBq) were injected as a bolus (50 μL compound flushed with 100 μL saline) via the tail vein and subsequent PET scanning was performed.
Small Animal PET Scanning. PET experiments were carried out using a submillimeter high resolution (0.7 mm full width at half‐maximum) small animal scanner (32 module quadHIDAC, Oxford Positron Systems Ltd., Oxford, UK) with uniform spatial resolution (<1 mm) over a large cylindrical field (165 mm diameter, 280 mm axial length). List‐mode data were acquired for 90 min and reconstructed into dynamic time frames using an iterative reconstruction algorithm. Subsequently, the scanning bed was transferred to the computed tomography (CT) scanner (Inveon, Siemens Medical Solutions, U.S.), and a CT acquisition with a spatial resolution of 80 μm was performed for each mouse. Reconstructed image data sets were coregistered based on extrinsic markers attached to the multimodal scanning bed and the in‐house developed image analysis software MEDgical. Three‐dimensional volumes of interest (VOIs) were defined over the respective organs in CT data sets, transferred to the coregistered PET data, and analyzed quantitatively. Regional uptake was calculated as percentage of injected dose by dividing counts per milliliter in the VOI by total counts in the mouse multiplied by 100 (%ID/mL).

[6] = Biostability and biotransformation in mice in vivo (radio-HPLC of pooled blood); parameters: species or system mouse; settings: pooled blood of three mice, 90 min after injection
Method: In order to investigate the in vivo biotransformation of [^18F]‐2, the blood of three mice 90 min after injection of [^18F]‐2 was pooled and analyzed.
Approximately 72 MBq of [^18F]‐2 (in a volume of 100 μL) were injected into the tail vein of each of three 11‐week‐old C57/BL6 mice. The animals were sacrificed 90 min after injection. Whole blood of the three mice was pooled (∼2 mL) and centrifuged (3 min) to isolate plasma. Plasma (∼0.7 mL) was separated and mixed with ice‐cold CH3CN (1.4 mL). After further centrifugation for 5 min, the supernatant was separated and evaporated to dryness in vacuo at moderate temperatures (≤60 °C). The residue was dissolved in water for injection (20 μL) and the solution was analyzed by analytical radio‐HPLC B, method B.

[7] = system: MOG induced EAE; settings: mouse, in vivo; cited from earlier work
[8] = molecular target: T1, KOR (Homo sapiens, UniProt P41145); parameters: expressed in transfected cells; host or cells: HEK 293T (ATCC CRL-11268); method as in PMID 30543421; settings: human HEK 293T cells; refers to U-50,488 (100 %); cited from earlier work
Target sequence in this assay (P41145 whole entry, the tested form may be a part): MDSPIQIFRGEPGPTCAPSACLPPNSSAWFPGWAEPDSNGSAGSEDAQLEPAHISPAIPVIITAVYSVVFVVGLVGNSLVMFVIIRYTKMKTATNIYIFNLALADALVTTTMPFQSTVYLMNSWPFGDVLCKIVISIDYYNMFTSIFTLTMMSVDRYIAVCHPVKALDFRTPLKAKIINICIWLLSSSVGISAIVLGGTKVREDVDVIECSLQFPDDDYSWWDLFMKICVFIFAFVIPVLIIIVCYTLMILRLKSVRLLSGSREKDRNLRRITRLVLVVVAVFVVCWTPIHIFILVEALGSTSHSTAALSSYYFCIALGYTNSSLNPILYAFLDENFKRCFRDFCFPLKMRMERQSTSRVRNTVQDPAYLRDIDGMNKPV

[9] = molecular target: T1, KOR; parameters: expressed in transfected cells; host or cells: HTLA cells (stably expressing TEV-fused β-arrestin2); method as in PMID 30543421; settings: human HTLA cells; refers to U-50,488 (100 %); cited from earlier work
Target sequence in this assay (P41145 whole entry, the tested form may be a part): as above
Target sequence in this assay (P32121 whole entry partner, the tested form may be a part): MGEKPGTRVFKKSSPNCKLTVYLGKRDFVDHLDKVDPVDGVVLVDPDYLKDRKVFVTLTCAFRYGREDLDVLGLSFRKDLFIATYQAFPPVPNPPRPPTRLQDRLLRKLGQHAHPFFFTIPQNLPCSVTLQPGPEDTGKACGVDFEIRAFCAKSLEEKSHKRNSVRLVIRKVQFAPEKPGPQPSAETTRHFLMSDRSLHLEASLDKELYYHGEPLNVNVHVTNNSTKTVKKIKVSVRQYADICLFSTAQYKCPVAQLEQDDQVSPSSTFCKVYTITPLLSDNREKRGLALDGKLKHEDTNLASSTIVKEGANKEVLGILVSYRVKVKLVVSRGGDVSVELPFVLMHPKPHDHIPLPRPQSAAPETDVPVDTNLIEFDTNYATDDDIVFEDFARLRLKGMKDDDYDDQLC

Question: Which “amount of metabolite formed from 14c” value [1] does the source give for `O=C(Cc1ccc(Cl)c(Cl)c1)N1CCNC2CCCC(N3CCC(F)C3)C21` (centres unmarked) [14c‐5] here?
Answer: minor amounts

Question: Which logD [2] does the source give for `O=C(Cc1ccc(Cl)c(Cl)c1)N1CCN(Cc2cn(CC[18F])nn2)[C@H]2CCC[C@H](N3CCCC3)[C@H]21` [[^18F]‐2, 2‐(3,4‐Dichlorophenyl)‐1‐((4aR,8R,8aS)‐ and ((4aS,8S,8aR)‐ 4‐{[1‐(2‐[^18F]fluoroethyl)‐1H‐1,2,3‐triazol‐4‐yl]methyl}‐8‐ (pyrrolidin‐1‐yl)‐3,4,4 a,5,6,7,8,8 a‐octahydroquinoxalin‐ 1(2H)‐yl)ethan‐1‐one] here?
Answer: 1.37 ± 0.06

Question: What about the “stability in mouse serum” value [3] of the same compound?
Answer: high stability

Question: What about the “stability in human serum” value [4] of the same compound?
Answer: high stability

Question: And the “radioactivity in the bones / defluorination” value [5]?
Answer: increased radioactivity in the bones was not observed

Question: And the “enrichment of radioactivity in brain or spinal cord (PET images)” value ([5]; 90 min observation)?
Answer: do not show any enrichment of radioactivity in the brain or spinal cord

Question: What about the “clearance from the body” value ([5]; hepatic and renal pathways) of the same compound?
Answer: very fast and efficient clearance

Question: And the “intact PET tracer in blood” value [6]?
Answer: 90%

Question: Which “protection from MS-like symptoms / disease severity in EAE” value [7] does the source give for `O=C(Cc1ccc(Cl)c(Cl)c1)N1CCN(Cc2cn(CCF)nn2)C2CCCC(N3CCCC3)C21` (centres unmarked) [compound 2] here?
Answer: significantly decreased diseases severity and delayed disease onset; also recorded: almost complete protection

Question: What about the “cAMP E max” value [8] of the same compound?
Answer: 103%

Question: And the “β-Arrestin-2 E max” value [9]?
Answer: 86%
